Values belong to the molecule of their own block, whether it stands above or below them.
Experiment: Measurement of log P values by HPLC on reversed phase columns (methods [a] pH 2.3, [b] pH 2.7, [c] pH 7.8)
Assay type: physicochemical
Summary of the method: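 Determined per EEC Directive 79/831 Annex V.A8 by reversed-phase HPLC, 10-95% acetonitrile gradient: [a] pH 2.3, 0.1% phosphoric acid; [b] LC-MS, pH 2.7, 0.1% formic acid; [c] LC-MS, pH 7.8, 0.001 molar ammonium hydrogen carbonate. Calibrated with C3-C16 alkan-2-ones by retention-time interpolation.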

[1] = HPLC reversed phase, method [b] (pH 2.7)
[2] = HPLC reversed phase, method [c] pH 7.8
[3] = HPLC on reversed phase column, method [b], pH 2.7
[4] = HPLC on reversed phase columns, method [b], pH 2.7
[5] = method [b], HPLC reversed phase, pH 2.7
[6] = HPLC on reversed phase column, method [c], pH 7.8

SMILES: O=C(N[C@@H]1CCC[C@@H]1c1ccc(C(F)(F)F)cc1)c1nccnc1C(F)(F)F (relative stereo) [Example 330]
- logP [1]: 3.55^[b]
- logP [2]: 3.45^[c];

SMILES: Cc1nc(C)c(C(=O)NC2CCCC2c2c(F)cccc2F)s1 (stereo not drawn) [Example 312]
- logP [1]: 2.65^[b]

SMILES: Cc1nn(C)c(F)c1C(=O)NC1CC1c1ccc(Cl)cc1 (stereo not drawn) [Example 12]
- logP [4]: 3.04^[b]

SMILES: CCCc1nn(C)cc1C(=O)N[C@@H]1CCC[C@@H]1c1ccc(F)c(F)c1 (relative stereo) [Example 81]
- logP [4]: 2.80^[b]

SMILES: O=C(NC1CCCC1c1ccccc1C(F)(F)F)c1ccccc1Cl (stereo not drawn) [Example 300]
- logP [1]: 3.56^[b]

SMILES: CCOc1nn(C)cc1C(=O)N[C@@H]1CCC[C@H]1c1ccc(F)c(F)c1 (relative stereo) [Example 127]
- logP [5]: 3.13^[b]

SMILES: Cn1nc(C(F)F)c(C(=O)NC2CCCCC2c2ccccc2)c1Cl (stereo not drawn) [Example 183]
- logP [5]: 3.51^[b]

SMILES: O=C(NC1CCC1c1ccccc1Cl)c1cccc(Cl)c1 (stereo not drawn) [Example 445]
- logP [1]: 3.75^[b]

SMILES: Cn1nc(C(F)F)c(C(=O)NC2CC2c2ccc(F)cc2)c1Cl (stereo not drawn) [Example 192]
- logP [5]: 2.75^[b]

SMILES: Cc1nc(C(F)(F)F)c(C(=O)NC2CC2c2ccccc2)s1 (stereo not drawn) [Example 8]
- logP [4]: 2.66^[b]

SMILES: Cc1nc(C)c(C(=O)NC2CCCC2c2ccc(Cl)cc2Cl)s1 (stereo not drawn) [Example 354]
- logP [1]: 3.24^[b]

SMILES: O=C(NC1CCCCC1c1ccc(Cl)cc1)c1ccccc1I (stereo not drawn) [Example 372]
- logP [1]: 3.84^[b]

SMILES: Cn1nc(C(F)F)c(C(=O)NC2CC2c2ccccc2C(F)(F)F)c1Cl (stereo not drawn) [Example 193]
- logP [5]: 3.15^[b]

SMILES: O=C(NC1CCC1c1ccccc1Cl)c1cccc(Cl)c1 (stereo not drawn) [Example 448]
- logP [1]: 3.36^[b]

SMILES: CC(C)Oc1ccc([C@H]2CCC[C@H]2NC(=O)c2nccnc2Cl)cc1 (relative stereo) [Example 335]
- logP [1]: 3.23^[b]
- logP [2]: 3.21^[c];

SMILES: Cc1nn(C)cc1C(=O)NC1CCCCC1c1ccccc1C(F)(F)F (stereo not drawn) [Example 384]
- logP [1]: 2.87^[b]

SMILES: O=C(N[C@@H]1CCC[C@@H]1c1ccc(F)c(F)c1)c1ccc(C(F)(F)F)nc1Cl (relative stereo) [Example 124]
- logP [4]: 3.68^[b]

SMILES: O=C(NC1CC1c1ccc(Br)cc1)c1cccnc1Cl (stereo not drawn) [Example 35]
- logP [4]: 2.34^[b]

SMILES: O=C(N[C@@H]1C[C@H]1c1ccccc1)c1ccccc1I (relative stereo) [Example 44]
- logP [4]: 2.93^[b]

SMILES: O=C(NC1CC1c1ccc(Cl)cc1)c1c(F)cccc1I (stereo not drawn) [Example 464]
- logP [1]: 3.02^[b]
- logP [2]: 2.99^[c];

SMILES: Cn1cc(C(=O)NC2CCC2c2ccc(Cl)cc2Cl)c(C(F)F)n1 (stereo not drawn) [Example 468]
- logP [1]: 3.26^[b]

SMILES: CC(C)Oc1nn(C)cc1C(=O)N[C@@H]1CCC[C@@H]1c1ccc(F)c(F)c1 (relative stereo) [Example 118]
- logP [4]: 3.27^[b]

SMILES: Cc1ccccc1C(=O)NC1CC1c1ccc(Cl)cc1 (stereo not drawn) [Compound 276]
- logP [1]: 2.76^[b]
- logP [2]: 2.70^[c];

SMILES: O=C(NC1CC1c1ccc(Cl)cc1)c1cccnc1Cl (stereo not drawn) [Example 34]
- logP [4]: 2.43^[b]
- logP (HPLC on reversed phase columns, method [c], pH 7.8): 2.39^[c];

SMILES: O=C(NC1CCCCC1c1ccccc1Cl)c1c(F)cccc1F (stereo not drawn) [Example 379]
- logP [1]: 3.67^[b]

SMILES: O=C(N[C@@H]1CC[C@@H]1c1ccccc1Cl)c1ncc(C(F)(F)F)cc1Cl (relative stereo) [Example 246]
- logP [1]: 3.77^[b]

SMILES: O=C(N[C@@H]1CCC[C@@H]1c1ccc(F)c(F)c1)c1ncccc1C(F)(F)F (relative stereo) [Example 90]
- logP [4]: 3.31^[b]

SMILES: O=C(NC1CCC1c1ccc(F)cc1C(F)(F)F)c1ncccc1Cl (stereo not drawn) [Compound 478]
- logP [1]: 3.39^[b]

SMILES: O=C(NC1CC1c1ccc(Cl)cc1)c1ccccc1Br (stereo not drawn) [Example 272]
- logP [1]: 2.82^[b]
- logP [2]: 2.76^[c];

SMILES: Cc1nc(C(F)(F)F)c(C(=O)N[C@@H]2CCC[C@@H]2c2ccc(OC(C)C)cc2)s1 (relative stereo) [Example 342]
- logP [1]: 3.80^[b]
- logP [2]: 3.71^[c];

SMILES: O=C(NC1CCC1c1ccccc1Cl)c1ccccc1 (stereo not drawn) [Example 449]
- logP [1]: 2.81^[b]

SMILES: Cc1nc(C(F)(F)F)c(C(=O)N[C@@H]2CCC[C@H]2c2ccc(F)c(F)c2)s1 (relative stereo) [Example 128]
- logP [5]: 3.42^[b]

SMILES: O=C(N[C@@H]1CCC[C@@H]1c1ccc(C(F)(F)F)cc1)c1cccnc1 (relative stereo) [Example 298]
- logP [1]: 2.46^[b]
- logP [2]: 2.46^[c];

SMILES: O=C(NC1CC1c1ccc(Cl)cc1)c1ccccc1I (stereo not drawn) [Example 199]
- logP [5]: 3.24^[b]
- logP (method [c], HPLC reversed phase, pH 7.8): 3.19^[c];

SMILES: CC(C)Oc1ccc([C@H]2CCC[C@H]2NC(=O)c2ccccc2Cl)cc1 (relative stereo) [Example 317]
- logP [1]: 3.74^[b]
- logP [2]: 3.73^[c];

SMILES: CN(C(=O)c1c(C(F)F)nn(C)c1Cl)C1CCCCC1c1ccccc1 (stereo not drawn) [Example 197]
- logP [5]: 3.63^[b]

SMILES: O=C(N[C@@H]1CCC[C@@H]1c1ccc(C(F)(F)F)cc1)c1c(F)cccc1F (relative stereo) [Example 304]
- logP [1]: 3.51^[b]
- logP [2]: 3.47^[c];

SMILES: O=C(NC1CC1c1ccc(Cl)cc1)c1c(F)cccc1Cl (stereo not drawn) [Example 463]
- logP [1]: 2.83^[b]
- logP [2]: 2.75^[c];

SMILES: Cc1nn(C)c(Cl)c1C(=O)N[C@@H]1CCC[C@@H]1c1ccc(F)c(F)c1 (relative stereo) [Example 85]
- logP [4]: 2.82^[b]

SMILES: Cc1ccsc1C(=O)N[C@@H]1CCC[C@H]1c1ccc(F)c(F)c1 (relative stereo) [Example 136]
- logP [5]: 3.46^[b]

SMILES: O=C(NC1CC1c1ccc(Cl)cc1)c1ccccc1[N+](=O)[O-] (stereo not drawn) [Example 467]
- logP [1]: 2.59^[b]
- logP [2]: 2.45^[c];

SMILES: O=C(NC1CCCC1c1c(F)cccc1F)c1c(F)cccc1F (stereo not drawn) [Example 314]
- logP [1]: 3.05^[b]

SMILES: O=C(NC1CCC1c1c(F)cccc1F)c1ncc(C(F)(F)F)cc1Cl (stereo not drawn) [Example 228]
- logP [5]: 3.61^[b]

SMILES: O=C(NC1CCCC1c1ccccc1Cl)c1cccnc1Cl (stereo not drawn) [Example 293]
- logP [1]: 2.64^[b]

SMILES: Cc1nn(C)c(F)c1C(=O)N[C@@H]1C[C@H]1c1ccccc1 (relative stereo) [Example 42]
- logP [4]: 1.99^[b]

Further lines, results first:

- logP [3]: 3.49^[b]
SMILES: Cc1nc(C(F)(F)F)c(C(=O)N[C@@H]2CC[C@H]2c2ccccc2C(F)(F)F)s1 (relative stereo) [Example 633]

- logP [1]: 3.60^[b]
SMILES: Cc1nc(C(F)(F)F)c(C(=O)N[C@@H]2CC[C@H]2c2ccc(F)cc2C(F)(F)F)s1 (relative stereo) [Example 530]

- logP [3]: 4.02^[b]
SMILES: O=C(N[C@@H]1CC[C@H]1c1cccc(F)c1C(F)(F)F)c1sccc1I (relative stereo) [Example 627]

- chromatographic logP (reversed phase HPLC columns, pH 2.7, HPLC on reversed phase columns, method [b] (pH 2.7), read-out: logP): 2.98
SMILES: O=C(N[C@@H]1C[C@]1(F)c1ccc(Cl)cc1)c1ccccc1I [Example 753]

- logP [3]: 4.04^[b]
SMILES: O=C(N[C@@H]1CC[C@@H]1c1ccc(Cl)cc1C(F)(F)F)c1ccc(Cl)cc1 (relative stereo) [Example 707]

- logP [3]: 3.28^[b]
SMILES: Cc1nc(C(F)(F)F)c(C(=O)N[C@@H]2CC[C@@H]2c2cccc(F)c2C(F)(F)F)s1 (relative stereo) [Example 626]

- logP [3]: 3.84^[b]
SMILES: O=C(N[C@@H]1CC[C@@H]1c1ccc(Cl)cc1C(F)(F)F)c1ccccc1C(F)(F)F (relative stereo) [Example 704]

- logP [3]: 3.50^[b]
SMILES: O=C(N[C@@H]1CC[C@H]1c1cccc(F)c1C(F)(F)F)c1ccc(Cl)cc1Cl (relative stereo) [Example 593]

- logP [1]: 3.35^[b]
SMILES: Cc1nc(C(F)(F)F)c(C(=O)N[C@@H]2CC[C@@H]2c2ccc(F)cc2C(F)(F)F)s1 (relative stereo) [Example 531]

- logP [3]: 2.99^[b]
- logP [6]: 2.94^[c];
SMILES: Cn1ncc(C(=O)N[C@@H]2C[C@@H]2c2ccc(Cl)cc2Cl)c1C(F)F (relative stereo) [Example 612]

- logP [1]: 2.85^[b]
SMILES: O=C(N[C@@H]1C[C@@H]1c1ccc(Cl)cc1Cl)c1cccnc1C(F)(F)F (relative stereo) [Example 565]

- logP [1]: 3.62^[b]
SMILES: O=C(N[C@@H]1CC[C@@H]1c1ccc(F)cc1C(F)(F)F)c1ccc(Cl)cc1 (relative stereo) [Example 508]

- logP [1]: 2.92^[b]
SMILES: O=C(N[C@@H]1CC[C@H]1c1ccccc1Cl)c1ccccc1[N+](=O)[O-] (relative stereo) [Example 547]

- logP [3]: 3.05^[b]
SMILES: O=C(N[C@@H]1CC[C@@H]1c1ccc(Cl)cc1Cl)c1nccnc1Cl (relative stereo) [Example 676]

- logP [4]: 3.60^[b]
SMILES: O=C(NC1CCC1c1ccc(Cl)cc1C(F)(F)F)c1cccnc1C(F)(F)F (stereo not drawn) [Example 720]

- logP [3]: 4.01^[b]
SMILES: O=C(N[C@@H]1CC[C@H]1c1ccc(Cl)cc1C(F)(F)F)c1ccccc1Cl (relative stereo) [Example 697]

- logP [4]: 3.33^[b]
SMILES: O=C(NC1CCC1c1c(Cl)cccc1Cl)c1c(F)cccc1F (stereo not drawn) [Example 727]

- logP [3]: 3.72^[b]
- logP [6]: 3.62^[c];
SMILES: O=C(N[C@@H]1CC[C@@H]1c1ccc(Br)cc1C(F)(F)F)c1nccnc1C(F)(F)F (relative stereo) [Example 659]

- logP [3]: 2.40^[b]
- logP [6]: 2.33^[c];
SMILES: CC1=C(C(=O)N[C@@H]2C[C@@H]2c2ccc(Cl)cc2Cl)S(=O)(=O)CCO1 (relative stereo) [Example 614]

- logP [3]: 2.23^[b]
SMILES: O=C(N[C@@H]1CC[C@@H]1c1ccc(Cl)cc1Cl)c1cccnc1 (relative stereo) [Example 673]

- logP [4]: 4.08^[b]
SMILES: O=C(NC1CCC1c1ccc(Cl)cc1C(F)(F)F)c1ccccc1Br (stereo not drawn) [Example 722]

- logP [1]: 2.75^[b]
SMILES: O=C(NC1CCC1c1c(F)cccc1F)c1ccccc1 (stereo not drawn) [Example 514]

- logP [1]: 3.91^[b]
SMILES: O=C(N[C@@H]1CC[C@@H]1c1cc(F)ccc1C(F)(F)F)c1ncc(C(F)(F)F)cc1Cl (relative stereo) [Example 529]

Reference: patent US20160075653A1, “NEMATICIDAL N-(PHENYLCYCLOALKYL)CARBOXAMIDES AND N-(PHENYLCYCLOALKYL)THIOCARBOXAMIDES” (BAYER CROPSCIENCE AKTIENGESELLSCHAFT, priority 2013, published 2016)
